Assay results from patent US7649002B2, “(3,5-dimethylpiperidin-1yl)(4-phenylpyrrolidin-3-yl)methanone derivatives as MCR4 agonists” (Pfizer Inc, priority 2004, dated 2010).

Tests used:
human MCR4 receptor = biological target: T1, human MCR4 receptor (Homo sapiens, UniProt P32245); test: MCR4 standard functional assay (Protocol C): cAMP AlphaScreen in HEK cells; format: cell-based; conditions: Table 5
T1 construct: expressed in transfected cells
Method: (§1) Stimulation of adenylate cyclase following receptor activation is a widely used measure of functional activity for a number of receptor systems. The functional assay to measure cyclic AMP (cAMP) utilises human embryonic kidney (HEK) cells that stably express the human melanocortin MCR1, MCR3 or MCR4 receptor. Activation of MCR1, MCR3 or MCR4 receptors stimulates adenylate cyclase, generating cAMP, which is measured using AlphaScreen™ (PerkinElmer assay kits.
(§2) The AlphaScreen™ cAMP assay kit consists of ‘donor beads’, ‘acceptor beads’, and biotinylated cAMP which links the different beads together. Excitation of this linked complex at […] in the Fusion™-α microplate analyser results in light emission between […].
(§3) (i) MCR1. MCR3 and MCR4 Standard Functional Assay Methodology [Assay Protocol A, B AND C Respectively]
(§4) Determination of activity against the human MCR1, MCR3 and MCR4 receptor subtypes was carried out for compounds according to the present invention using three immortalised human embryonic kidney (HEK) cell lines that had been biologically engineered to express the human melanocortin MCR1, MCR3 or MCR4 receptor subtypes. These cell lines were engineered using protocols akin to those outlined by Gouarderes et al (Gouarderes, C., (2002) Neuroscience, 115(2); 349-361).
(§5) Such-compound-induced activation of these MCR1, MCR3 or MCR4 receptors lead to the stimulation of the cellular enzyme adenylate cyclase, which in turn lead to the cellular generation, and intra-cellular accumulation, of cyclic adenosine monophosphate (cAMP). […] Intracellular levels of cAMP were quantified using the commercially available AlphaScreen™ assay kits from PerkinElmer. A detailed assay protocol and an explanation of the concept underlying this kit is available through the PerkinElmer website (www.perkinelmer.com). The protocol listed below provides a summary this information.
(§6) The quantity of intracellular cAMP produced by compound-induced activation of the MCR1, MCR3 and MCR4 receptors in these three cell lines was measured using a Fusion™-α microplate analyser set to stimulate at a wavelength of 680 nm and to measure the energy emitted at wave lengths between […]. Compound-induced increases in MCR1, MCR3 or MCR4 receptor activation were subsequently quantified as a decrease in the quantity of light emitted at wavelengths between […]. Data analysis was subsequently performed using a curve-fitting program and the apparent potency of the test compound (expressed as an EC50 and defined as the effective compound concentration that elicited 50% of the maximum compound-induced response) extrapolated from the fitted curve.
Stimulation buffer (as per AlphaScreen™ protocol): HBSS supplemented with 0.5 mM IBMX, 5 mM HEPES, 0.1% (w/v) BSA and 10 mM MgCl2. […]

human MCR3 receptor = biological target: T2, human MCR3 receptor (Homo sapiens, UniProt P41968); test: MCR3 standard functional assay (Protocol B): cAMP AlphaScreen in HEK cells; format: cell-based; conditions: Table 5
T2 construct: expressed in transfected cells
T2 sequence (P41968 whole entry): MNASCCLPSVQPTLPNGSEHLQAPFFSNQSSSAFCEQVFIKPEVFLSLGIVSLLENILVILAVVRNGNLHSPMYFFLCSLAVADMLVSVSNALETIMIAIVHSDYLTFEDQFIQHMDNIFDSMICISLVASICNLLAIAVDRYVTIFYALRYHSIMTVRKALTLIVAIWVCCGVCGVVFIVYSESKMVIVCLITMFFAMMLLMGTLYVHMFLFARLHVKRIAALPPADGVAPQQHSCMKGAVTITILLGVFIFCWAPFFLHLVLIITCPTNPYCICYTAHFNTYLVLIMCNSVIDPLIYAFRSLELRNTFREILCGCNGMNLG
Method: as §1, §2, §3, §4, §5, §6
Stimulation buffer (as per AlphaScreen™ protocol): HBSS supplemented with 0.5 mM IBMX, 5 mM HEPES, 0.1% (w/v) BSA and 10 mM MgCl2.
Lysis buffer (as per AlphaScreen™ protocol): 5 mM HEPES solution supplemented with 0.1% (w/v) BSA and 0.3% (v/v) Tween-20.
Detection mix (as per AlphaScreen™ protocol): Lysis buffer supplemented with the biotinylated cAMP (10 nM) and Donor beads (10 μg/ml) as supplied in the AlphaScreenT cAMP assay kit.
For the MCR1, MCR3 and MCR4 standard functional assay methodologies compounds were initially dissolved in DMSO to give a compound concentration of 4 mM and then further diluted for the assay in stimulation buffer to give actual concentrations 2-fold greater than that desired as the final assay concentration.
The three HEK cell lines, as detailed hereinbefore, expressing the human MCR1, MCR3 or MCR4 receptor subtypes were grown in T225 vent cap flasks containing 50 ml of growth medium (DMEM supplemented with 10% (v/v) FCS, 2 mM L-Glutamine, 25 mM HEPES and 1.0 mg/ml Geneticin) and maintained in a cell incubator at a temperature of 37° C. and in an environment containing 5% CO2. Cells were harvested when they reached 80-90% confluency by first removing the existing growth medium and then washing with PBS that had been pre-warmed to a temperature of 37° C. […]

[1] = tested on: spontaneous penile erection in the conscious rat; test: Spontaneous penile erection in the conscious rat (telemetric intracavernosal pressure); format: in vivo; conditions: for maximum effective dose: s.c.
Method: MCR4 in vivo data for the compound of Example 1 was assessed by selective activation of melanocortin MCR4 receptors using the methodology assessing spontaneous penile erection in the conscious rat.
Erectile responses were recorded by measuring intracavernosal pressure using a surgically implanted telemetric device (TA11PA-C40, 8 mm catheter, modified 3 mm tip, available from Data Sciences International Inc.). An increase in intracavernosal pressure is indicative of penile erection, as an increase in intracavernosal pressure is an essential hemodynamic event during the initiation and maintenance of penile erection. The specific details of the surgical procedures, data acquisition and analysis used herein to measure increases in intracavernosal pressure can be found in detail in Bernabe J., Rampin O., Sachs B. D., Giuliano F., “Intracavernous pressure during erection in rats: an integrative approach based on telemetric recording”, Am. J. Physiol. 1999 February; 276 (2 Pt 2):R441-9.
The test animals (rats) (during the dark cycle) were habituated for 18 hours before baseline assessment of erectile function. Prior to administration of the test agent the baseline erectile activity (B) was assessed for the vehicle for 10 minutes using telemetric recording of intracavernosal pressure. Following subcutaneous administration of the compound of Example 1 (in the same vehicle), penile erections were assessed (using telemetric recording of intracavernosal pressure) over 10 minute periods, at intervals of 30, 60, and 90 minutes post dosage.

T1 sequence (P32245 whole entry): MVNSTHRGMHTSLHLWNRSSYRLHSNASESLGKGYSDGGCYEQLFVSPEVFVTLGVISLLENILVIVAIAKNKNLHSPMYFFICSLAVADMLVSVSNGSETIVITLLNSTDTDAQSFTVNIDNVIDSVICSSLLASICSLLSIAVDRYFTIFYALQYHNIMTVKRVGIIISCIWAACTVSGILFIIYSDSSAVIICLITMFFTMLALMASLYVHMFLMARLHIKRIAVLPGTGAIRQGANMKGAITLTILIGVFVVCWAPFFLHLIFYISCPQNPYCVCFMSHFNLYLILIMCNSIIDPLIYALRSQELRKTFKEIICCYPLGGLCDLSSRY

C[C@@H]1CN(C(=O)[C@@H]2CN(C(C)(C)C)C[C@H]2c2ccc(F)cc2F)C[C@H](C)[C@@]1(O)c1ccccc1 [Example 1, (3R,4R,5S)-1-{[(3S,4R)-1-tert-Butyl-4-(24-difluorophenyl)pyrrolidin-3-yl]carbonyl}-3,5-dimethyl-4-phenylpiperidin-4-ol]
EC50 (human MCR4 receptor): 25 nM | Selectivity MCR3/MCR4 (human MCR3 receptor; MCR4 by Protocol C): 56 | EC50 (human MCR3 receptor; Protocol B): 1390 nM | maximum effective dose ([1]; additional, more detailed study, FIG. 2, conscious rat): 10 µg/kg | erectile activity (number of erections over a 10 minute period) versus baseline (treatment vehicle) ([1]; additional, more detailed study, FIG. 2, starting 30 minutes post dosage, 1, 10 and 100 μg/kg s.c.): increases the erectile activity versus baseline erectile activity | number of penile erections ([1]; conscious rat, subcutaneously (s.c.)): dose dependent increase in the number of penile erections | maximum effective dose ([1]; preliminary study, FIG. 1, conscious rat): 1 µg/kg | erectile activity (number of erections over a 10 minute period) versus baseline ([1]; preliminary study, FIG. 1, starting 60 minutes post dosage, 1, 10 and 100 μg/kg s.c.): increases the erectile activity versus baseline erectile activity
